Results published in patent publication US10851097B2, “4,5,6,7-tetrahydro-1H-imidazo[4,5-c]pyridine and 1,4,5,6,7,8-hexahydroimidazo[4,5-d]azepine derivatives as janus kinase inhibitors” (Topivert Pharma Limited, priority 2015, dated 2020).

What was measured:
[1] = test system: CD3/IL2 stimulated PBMC cells; assay: IFNγ release from CD3/IL2 stimulated PBMC cells (assay (a)); assay type: cell-based; conditions: Homo sapiens, CD3/IL2 stimulation, 48 h, ELISA
JAK1 = target: T1, JAK1 (Homo sapiens, UniProt P23458); assay: KINOMEscan enzyme binding assay (DiscoveRx), JAK1; conditions: read-out: Dissociation Constant JAK1
T1 construct: purchased DiscoveRx (LeadHunter Discover Services, KINOMEscan)
T1 sequence (P23458 866-1154 limits assumed): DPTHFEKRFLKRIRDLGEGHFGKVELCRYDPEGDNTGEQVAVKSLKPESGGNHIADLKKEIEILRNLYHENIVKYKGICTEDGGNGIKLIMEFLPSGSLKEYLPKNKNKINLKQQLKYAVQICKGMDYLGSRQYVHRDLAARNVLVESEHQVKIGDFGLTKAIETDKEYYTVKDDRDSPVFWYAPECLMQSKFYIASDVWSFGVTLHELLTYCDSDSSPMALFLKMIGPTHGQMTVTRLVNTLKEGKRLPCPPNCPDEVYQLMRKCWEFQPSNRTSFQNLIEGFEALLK
Protocol: These assays may be conducted by DiscoveRx (formerly Ambit; San Diego, Calif.). The percentage inhibition produced by incubation with a test compound may be calculated relative to the non-inhibited control.

Kd (JAK1): 1 nM
Compound: CCc1cc(O)c(F)cc1-c1ccc2c(-c3nc4c([nH]3)CCN(C(=O)c3cnc(N(C)CCN5CCCC5=O)cn3)C4)n[nH]c2c1 [Example 2(k), 1-(2-((5-(2-(6-(2-ethyl-5-fluoro-4-hydroxyphenyl)-1H-indazol-3-yl)-4,5,6,7-tetrahydro-1H-imidazo[4,5-c]pyridine-5-carbonyl)pyrazin-2-yl)(methyl)amino)ethyl)pyrrolidin-2-one]
IC50 [1]: 9.9 nM
